{
  "source": "ChEMBL document CHEMBL5518165",
  "about": "“M335, a novel small-molecule STING agonist activates the immune response and exerts antitumor effects” (Eur J Med Chem, 2024)",
  "key": {"[1]": {"tested_on": "Human alphaherpesvirus 1", "assay": "Antiviral activity against HSV-1-GFP infected in human HeLa cells assessed as reduction in viral infection by fluorescent microscopy analysis", "assay_type": "functional, organism-based"}, "[2]": {"target": "Stimulator of interferon genes protein (Homo sapiens) (UniProt Q86WV6)", "sequence (Q86WV6 whole entry)": "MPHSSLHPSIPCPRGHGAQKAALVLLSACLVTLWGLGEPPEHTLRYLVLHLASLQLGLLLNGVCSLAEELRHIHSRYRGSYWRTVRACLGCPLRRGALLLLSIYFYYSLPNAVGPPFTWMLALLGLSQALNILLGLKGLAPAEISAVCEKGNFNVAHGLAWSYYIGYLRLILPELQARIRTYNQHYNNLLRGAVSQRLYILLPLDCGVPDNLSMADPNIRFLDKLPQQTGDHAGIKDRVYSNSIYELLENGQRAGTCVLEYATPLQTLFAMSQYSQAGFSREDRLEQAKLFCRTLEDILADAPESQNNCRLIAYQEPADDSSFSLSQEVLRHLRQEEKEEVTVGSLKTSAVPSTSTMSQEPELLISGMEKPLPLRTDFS", "assay": "Agonist activity at STING in human THP-1 cells assessed as IRF3 phosphorylation at 20 uM measured for 4 hrs in presence of H-151 by Western blotting analysis", "assay_type": "cell-based"}, "[3]": {"tested_on": "THP-1", "assay": "Upregulation of TBK1 phosphorylation in STING-knockout human THP-1 cells at 20 uM measured for 4 hrs by Western blotting analysis", "assay_type": "functional, cell-based"}, "[4]": {"tested_on": "Human alphaherpesvirus 1", "assay": "Antiviral activity against HSV-1-GFP infected in mouse MC38 cells assessed as reduction in viral infection by fluorescent microscopy analysis", "assay_type": "functional, organism-based"}, "[5]": {"tested_on": "MC-38", "assay": "Antitumor activity against mouse MC38 cells allografted in C57/BL6 mouse assessed as tumor growth inhibition at 300 ug, IT administered every 2 days relative to control", "assay_type": "functional", "settings": "dose 300 µg"}, "[6]": {"target": "T1, Stimulator of interferon genes protein (Mus musculus) (UniProt Q3TBT3)", "T1 sequence (whole entry)": "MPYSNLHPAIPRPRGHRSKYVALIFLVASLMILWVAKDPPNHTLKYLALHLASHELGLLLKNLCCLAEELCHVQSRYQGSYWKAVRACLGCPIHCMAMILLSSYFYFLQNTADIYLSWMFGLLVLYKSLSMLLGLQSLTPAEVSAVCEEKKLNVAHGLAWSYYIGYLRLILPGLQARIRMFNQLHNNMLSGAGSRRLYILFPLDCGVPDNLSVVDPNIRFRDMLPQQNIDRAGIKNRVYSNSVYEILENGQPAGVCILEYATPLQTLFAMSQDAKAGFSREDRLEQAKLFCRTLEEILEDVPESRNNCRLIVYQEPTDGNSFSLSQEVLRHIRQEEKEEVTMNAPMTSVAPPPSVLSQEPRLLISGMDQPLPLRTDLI", "assay": "Agonist activity at STING in MEF cells assessed as STING translocation by measuring aggregation of green fluorescence incubated for 1 hr by laser scanning confocal microscope analysis", "assay_type": "cell-based", "settings": "filed as agonist"}, "[7]": {"tested_on": "MC-38", "assay": "Induction of apoptosis in mouse MC38 cells allografted in C57/BL6 mouse a at 300 ug, IT administered every 2 days", "assay_type": "functional, cell-based", "settings": "dose 300.0 µg"}, "[8]": {"tested_on": "MC-38", "assay": "Antitumor activity against mouse MC38 cells allografted in C57/BL6 mouse assessed as increase in CD8+ T cells in tumor tissue at 300 ug, IT administered every 2 days by flow cytometry analysis (reference value: 4.10%)", "assay_type": "functional", "settings": "dose 300 µg"}, "[9]": {"tested_on": "MC-38", "assay": "Antitumor activity against mouse MC38 cells allografted in C57/BL6 mouse assessed as increase in CD3+ T cells in tumor tissue at 300 ug, IT administered every 2 days by flow cytometry analysis", "assay_type": "functional, cell-based", "settings": "dose 300.0 µg"}, "[10]": {"tested_on": "MC-38", "assay": "Antitumor activity against mouse MC38 cells allografted in C57/BL6 mouse assessed as increase in CD45+ T cells in spleen at 300 ug, IT administered every 2 days by flow cytometry analysis", "assay_type": "functional, cell-based", "settings": "dose 300.0 µg"}},
  "note": "Active and inactive are the calls of the source. No cut-off for these calls is given here.",
  "data": [
    {"smiles": "CC(NCCC(c1ccccc1)c1ccccc1)c1ccccc1", "note": "(stereo not given) [FENDILINE]", "values": [
      {"measurement": "Activity", "setting": "[1]", "value": "Active"},
      {"measurement": "Activity", "setting": "[2]", "value": "inactive"},
      {"measurement": "Activity", "setting": "[3]", "value": "inactive"},
      {"measurement": "Activity", "setting": "[4]", "value": "Active"},
      {"measurement": "TGI", "setting": "[5]", "value": 82, "unit": "%"},
      {"measurement": "Activity", "setting": "[6]", "value": "Active"},
      {"measurement": "Activity", "setting": "[7]", "value": "inactive"},
      {"measurement": "Activity", "setting": "[8]", "value": 14.7, "unit": "%"},
      {"measurement": "Activity", "setting": "[9]", "value": "Active"},
      {"measurement": "Activity", "setting": "[10]", "value": "Active"}
    ]}
  ]
}
